Source: PMC5218480 (PLoS ONE, 2017)

Tested on: MV-4-11 cells
Assay: Gene expression microarray analysis (Affymetrix PrimeView) and GSEA
Format: cell-based, human
Design: RFU PODN (11730768_x_at) / Fold change /veh PODN (11730768_x_at) / RFU LINC00158 (11744669_a_at) / Fold change /veh LINC00158 (11744669_a_at) / RFU DUSP10 (11751237_a_at) / Fold change /veh DUSP10 (11751237_a_at) / RFU ID3 (11757404_x_at) / Fold change /veh ID3 (11757404_x_at) / RFU PLEKHG5 (11737974_s_at) / Fold change /veh PLEKHG5 (11737974_s_at) / RFU LRRC4B (11730491_at) / Fold change /veh LRRC4B (11730491_at) / RFU GIMAP4 (11747438_a_at) / Fold change /veh GIMAP4 (11747438_a_at) / RFU KRT8 (11758183_x_at) / Fold change /veh KRT8 (11758183_x_at) / RFU CNN1 (11734310_a_at) / Fold change /veh CNN1 (11734310_a_at) / RFU VPS37D (11726825_at) / Fold change /veh VPS37D (11726825_at) / RFU C10orf10 (11716522_x_at) / Fold change /veh C10orf10 (11716522_x_at) / RFU KIR2DL2 /// KIR2DL4 /// KIR2DL5A /// KIR2DL5B /// KIR2DS1 /// KIR2DS2 /// KIR2DS3 /// KIR2DS4 /// KIR3DL3 /// KIR3DL3 /// KIR3DS1 (11738374_at) / Fold change /veh KIR2DL2 /// KIR2DL4 /// KIR2DL5A /// KIR2DL5B /// KIR2DS1 /// KIR2DS2 /// KIR2DS3 /// KIR2DS4 /// KIR3DL3 /// KIR3DL3 /// KIR3DS1 (11738374_at) / RFU C1QL1 (11718748_at) / Fold change /veh C1QL1 (11718748_at) / RFU TMPRSS4 (11747572_a_at) / Fold change /veh TMPRSS4 (11747572_a_at) / RFU HAMP (11756126_x_at) / Fold change /veh HAMP (11756126_x_at) / RFU RNFT2 (11725882_a_at) / Fold change /veh RNFT2 (11725882_a_at) / RFU NR4A2 (11747474_a_at) / Fold change /veh NR4A2 (11747474_a_at) / RFU ABCC12 (11746883_a_at) / Fold change /veh ABCC12 (11746883_a_at) / RFU TMEM136 (11760407_x_at) / Fold change /veh TMEM136 (11760407_x_at) / RFU CLDN22 /// WWC2 (11732394_at) / Fold change /veh CLDN22 /// WWC2 (11732394_at) / RFU HLA-DPB1 (11760878_x_at) / Fold change /veh HLA-DPB1 (11760878_x_at) / RFU SPINT1 (11716480_a_at) / Fold change /veh SPINT1 (11716480_a_at) / RFU GAP43 (11754022_s_at) / Fold change /veh GAP43 (11754022_s_at) / RFU A4GNT (11735810_at) / Fold change /veh A4GNT (11735810_at) / RFU PRB3 (11715151_x_at) / Fold change /veh PRB3 (11715151_x_at) / RFU TUBB4B (11761932_at) / Fold change /veh TUBB4B (11761932_at) / RFU CAPN14 (11732068_a_at) / Fold change /veh CAPN14 (11732068_a_at) / RFU TMCC2 (11721928_a_at) / Fold change /veh TMCC2 (11721928_a_at) / RFU IRGQ (11745062_a_at) / Fold change /veh IRGQ (11745062_a_at) / RFU FAM174B (11720279_a_at) / Fold change /veh FAM174B (11720279_a_at) / RFU TMPRSS4 (11748680_a_at) / Fold change /veh TMPRSS4 (11748680_a_at) / RFU FAM212B (11763350_a_at) / Fold change /veh FAM212B (11763350_a_at) / RFU PLEKHG5 (11743358_a_at) / Fold change /veh PLEKHG5 (11743358_a_at) / RFU ZSCAN30 (11745921_a_at) / Fold change /veh ZSCAN30 (11745921_a_at) / RFU CMKLR1 (11741424_a_at) / Fold change /veh CMKLR1 (11741424_a_at) / RFU LOC101060620 /// MAPK8IP1 (11723275_at) / Fold change /veh LOC101060620 /// MAPK8IP1 (11723275_at) / RFU SPTSSB (11747773_x_at) / Fold change /veh SPTSSB (11747773_x_at) / RFU PRSS12 (11739890_at) / Fold change /veh PRSS12 (11739890_at) / RFU BIN1 (11741810_x_at) / Fold change /veh BIN1 (11741810_x_at) / RFU WNT11 (11732464_a_at) / Fold change /veh WNT11 (11732464_a_at) / RFU C10orf10 (11716521_a_at) / Fold change /veh C10orf10 (11716521_a_at) / RFU C5orf56 (11738089_at) / Fold change /veh C5orf56 (11738089_at) / RFU CYB561 (11721691_x_at) / Fold change /veh CYB561 (11721691_x_at) / RFU ANKRD19P (11752326_a_at) / Fold change /veh ANKRD19P (11752326_a_at) / RFU OR2T12 /// OR2T33 /// OR2T8 (11738714_s_at) / Fold change /veh OR2T12 /// OR2T33 /// OR2T8 (11738714_s_at) / RFU VCAN (11748164_a_at) / Fold change /veh VCAN (11748164_a_at) / RFU JSRP1 (11732532_at) / Fold change /veh JSRP1 (11732532_at) / RFU KRTAP10-11 (11738290_x_at) / Fold change /veh KRTAP10-11 (11738290_x_at) / RFU MYO3A (11730013_a_at) / Fold change /veh MYO3A (11730013_a_at) / RFU EBF3 (11725865_a_at) / Fold change /veh EBF3 (11725865_a_at) / RFU CAMK2N1 (11719241_x_at) / Fold change /veh CAMK2N1 (11719241_x_at) / RFU C5orf56 (11738088_a_at) / Fold change /veh C5orf56 (11738088_a_at) / RFU OLFML3 (11715873_a_at) / Fold change /veh OLFML3 (11715873_a_at) / RFU LOC100653217 /// NTM (11731650_a_at) / Fold change /veh LOC100653217 /// NTM (11731650_a_at) / RFU MAPK11 (11762145_a_at) / Fold change /veh MAPK11 (11762145_a_at) / RFU FIZ1 (11724087_x_at) / Fold change /veh FIZ1 (11724087_x_at) / RFU OASL (11726364_x_at) / Fold change /veh OASL (11726364_x_at) / RFU SOX15 (11748057_x_at) / Fold change /veh SOX15 (11748057_x_at) / RFU CD79A (11719716_a_at) / Fold change /veh CD79A (11719716_a_at) / RFU HIST1H1D (11736915_at) / Fold change /veh HIST1H1D (11736915_at) / RFU CASKIN2 (11723855_a_at) / Fold change /veh CASKIN2 (11723855_a_at) / RFU LOC730098 (11760151_x_at) / Fold change /veh LOC730098 (11760151_x_at) / RFU OR4N2 (11742367_at) / Fold change /veh OR4N2 (11742367_at) / RFU PRRT2 (11749266_a_at) / Fold change /veh PRRT2 (11749266_a_at) / RFU SNX32 (11753110_a_at) / Fold change /veh SNX32 (11753110_a_at) / RFU CDHR5 (11726645_a_at) / Fold change /veh CDHR5 (11726645_a_at) / RFU RCAN1 (11760418_a_at) / Fold change /veh RCAN1 (11760418_a_at) / RFU FAM167A (11723789_a_at) / Fold change /veh FAM167A (11723789_a_at) / RFU FAM26E (11764081_at) / Fold change /veh FAM26E (11764081_at) / RFU ISYNA1 (11749810_s_at) / Fold change /veh ISYNA1 (11749810_s_at) / RFU ACY1 (11761880_at) / Fold change /veh ACY1 (11761880_at) / RFU 11764098_at / Fold change /veh 11764098_at / RFU SAMD14 (11745864_x_at) / Fold change /veh SAMD14 (11745864_x_at) / RFU NPB (11741838_a_at) / Fold change /veh NPB (11741838_a_at) / RFU TMPRSS6 (11731388_a_at) / Fold change /veh TMPRSS6 (11731388_a_at) / RFU KRTAP10-2 (11738614_at) / Fold change /veh KRTAP10-2 (11738614_at) / RFU ARHGAP8 /// PRR5-ARHGAP8 (11727945_x_at) / Fold change /veh ARHGAP8 /// PRR5-ARHGAP8 (11727945_x_at) / RFU KRTAP5-7 /// NADSYN1 (11734609_at) / Fold change /veh KRTAP5-7 /// NADSYN1 (11734609_at) / RFU RASL12 (11751679_a_at) / Fold change /veh RASL12 (11751679_a_at) / RFU CDKN2B (11736163_a_at) / Fold change /veh CDKN2B (11736163_a_at) / RFU PRF1 (11729649_at) / Fold change /veh PRF1 (11729649_at) / RFU, ZNF638 /// ZNF638-IT1 / Fold change vs veh, ZNF638 /// ZNF638-IT1 / RFU, PANK3 / Fold change vs veh, PANK3 / RFU, SH3YL1 / Fold change vs veh, SH3YL1 / RFU, ZEB2 / Fold change vs veh, ZEB2 / RFU, NRIP1 / Fold change vs veh, NRIP1 / RFU, PTTG1IP / Fold change vs veh, PTTG1IP / RFU, CAPN2 / Fold change vs veh, CAPN2 / RFU, MED14 / Fold change vs veh, MED14 / RFU, SNORA58 / Fold change vs veh, SNORA58 / RFU, C1orf63 / Fold change vs veh, C1orf63 / RFU, LRRFIP1 / Fold change vs veh, LRRFIP1 / RFU, NDUFAF7 / Fold change vs veh, NDUFAF7 / RFU, SLC12A2 / Fold change vs veh, SLC12A2 / RFU, IBTK / Fold change vs veh, IBTK / RFU, ESF1 / Fold change vs veh, ESF1 / Fold change vs veh, TMEM50B / RFU, TAOK1 / Fold change vs veh, TAOK1 / RFU, ACBD3 / Fold change vs veh, ACBD3 / RFU, TMA16 / Fold change vs veh, TMA16 / RFU, RWDD3 / Fold change vs veh, RWDD3 / RFU, BCAT1 / Fold change vs veh, BCAT1 / RFU, EDEM3 / Fold change vs veh, EDEM3 / RFU, TMEM33 / Fold change vs veh, TMEM33 / RFU, WDR75 / Fold change vs veh, WDR75 / RFU, AHCTF1 / Fold change vs veh, AHCTF1 / RFU, TFRC / Fold change vs veh, TFRC / RFU, ZDHHC17 / Fold change vs veh, ZDHHC17 / RFU, NOM1 / Fold change vs veh, NOM1 / RFU, ARL8B / Fold change vs veh, ARL8B / RFU, ZBTB11 / Fold change vs veh, ZBTB11 / RFU, TAMM41 / Fold change vs veh, TAMM41 / RFU, KIAA1704 /// LOC100996395 / Fold change vs veh, KIAA1704 /// LOC100996395 / RFU, ING1 / Fold change vs veh, ING1 / RFU, TRMT61B / Fold change vs veh, TRMT61B / RFU, FUBP3 / Fold change vs veh, FUBP3 / RFU, TP53 / Fold change vs veh, TP53 / RFU, TNKS2 / Fold change vs veh, TNKS2 / RFU, ZFP14 / Fold change vs veh, ZFP14 / RFU, ACTR2 / Fold change vs veh, ACTR2 / RFU, PPP3R1 / Fold change vs veh, PPP3R1 / RFU, PIK3R1 / Fold change vs veh, PIK3R1 / RFU, HNRNPA1 / Fold change vs veh, HNRNPA1 / RFU, RNF170 / Fold change vs veh, RNF170 / RFU, ZNF28 / Fold change vs veh, ZNF28 / RFU, RNGTT / Fold change vs veh, RNGTT / RFU, OGT / Fold change vs veh, OGT / RFU, BRD1 / Fold change vs veh, BRD1 / RFU, MARS / Fold change vs veh, MARS / RFU, ZNF655 / Fold change vs veh, ZNF655 / RFU, FAHD1 / Fold change vs veh, FAHD1 / RFU, BDP1 / Fold change vs veh, BDP1 / RFU, LRRCC1 / Fold change vs veh, LRRCC1 / RFU, ARID1A / Fold change vs veh, ARID1A / RFU, ZNF146 / Fold change vs veh, ZNF146 / RFU, ZNF330 / Fold change vs veh, ZNF330 / RFU, GPN3 / Fold change vs veh, GPN3 / RFU, C9orf123 / Fold change vs veh, C9orf123 / RFU, N4BP2L2 / Fold change vs veh, N4BP2L2 / RFU, ARFIP1 / Fold change vs veh, ARFIP1 / RFU, FAM179B / Fold change vs veh, FAM179B / RFU, BCL10 / Fold change vs veh, BCL10 / RFU, UHRF1BP1L / Fold change vs veh, UHRF1BP1L / RFU, BET1 / Fold change vs veh, BET1 / RFU, CNOT2 / Fold change vs veh, CNOT2 / RFU, ZNF268 / Fold change vs veh, ZNF268 / Fold change vs veh, ZNF507 / RFU, DGCR2 / Fold change vs veh, DGCR2 / RFU, WDSUB1 / Fold change vs veh, WDSUB1 / Fold change vs veh, HSP90B1 /// MIR3652 / RFU, ADSS / Fold change vs veh, ADSS / RFU, GK / Fold change vs veh, GK / RFU, ZNF148 / Fold change vs veh, ZNF148 / RFU, TAF9 / Fold change vs veh, TAF9 / RFU, SLC1A5 / Fold change vs veh, SLC1A5 / RFU, SLMO2 / Fold change vs veh, SLMO2 / RFU, ABCC4 / Fold change vs veh, ABCC4 / RFU, LOC101060439 /// RAP1B / Fold change vs veh, LOC101060439 /// RAP1B / RFU, RFX7 / Fold change vs veh, RFX7 / RFU, GTPBP10 / Fold change vs veh, GTPBP10 / RFU, CNEP1R1 / Fold change vs veh, CNEP1R1 / RFU, BIVM-ERCC5 /// ERCC5 / Fold change vs veh, BIVM-ERCC5 /// ERCC5 / RFU, ILF3 / Fold change vs veh, ILF3 / RFU 11762660_at / Fold change /veh 11762660_at / RFU VCAN (11757783_s_at) / Fold change /veh VCAN (11757783_s_at) / RFU DDX43 (11728927_at) / Fold change /veh DDX43 (11728927_at) / RFU KRT8 (11758188_x_at) / Fold change /veh KRT8 (11758188_x_at) / RFU NKD1 (11759106_at) / Fold change /veh NKD1 (11759106_at) / RFU SRD5A1 (11742802_a_at) / Fold change /veh SRD5A1 (11742802_a_at) / RFU TPSAB1 /// TPSB2 (11721975_s_at) / Fold change /veh TPSAB1 /// TPSB2 (11721975_s_at) / RFU GSTM3 (11746129_a_at) / Fold change /veh GSTM3 (11746129_a_at) / RFU IL23R (11737362_x_at) / Fold change /veh IL23R (11737362_x_at) / RFU TMEM51 (11727254_a_at) / Fold change /veh TMEM51 (11727254_a_at) / RFU PIWIL2 (11732686_x_at) / Fold change /veh PIWIL2 (11732686_x_at) / RFU ORM1 (11744905_x_at) / Fold change /veh ORM1 (11744905_x_at) / RFU CCDC152 (11743942_at) / Fold change /veh CCDC152 (11743942_at) / RFU ECM1 (11717891_a_at) / Fold change /veh ECM1 (11717891_a_at) / RFU IL23R (11748794_a_at) / Fold change /veh IL23R (11748794_a_at) / RFU TNFAIP8L3 (11732012_x_at) / Fold change /veh TNFAIP8L3 (11732012_x_at) / RFU MBOAT4 (11741988_at) / Fold change /veh MBOAT4 (11741988_at) / RFU 11764193_at / Fold change /veh 11764193_at / RFU TMEM53 (11763286_at) / Fold change /veh TMEM53 (11763286_at) / RFU MAGEB2 (11727129_at) / Fold change /veh MAGEB2 (11727129_at) / RFU TMEM200A (11744735_a_at) / Fold change /veh TMEM200A (11744735_a_at) / RFU CCDC152 (11751479_a_at) / Fold change /veh CCDC152 (11751479_a_at) / RFU FAM211A (11726209_a_at) / Fold change /veh FAM211A (11726209_a_at) / RFU RGS16 (11746705_a_at) / Fold change /veh RGS16 (11746705_a_at) / RFU VCAN (11755009_s_at) / Fold change /veh VCAN (11755009_s_at) / RFU RHOB (11743442_s_at) / Fold change /veh RHOB (11743442_s_at) / RFU RGS16 (11720943_a_at) / Fold change /veh RGS16 (11720943_a_at) / RFU RGS16 (11720944_at) / Fold change /veh RGS16 (11720944_at) / RFU, VPS4B / Fold change vs veh, VPS4B / RFU, CREB1 / Fold change vs veh, CREB1 / RFU, DNAJC13 / Fold change vs veh, DNAJC13 / RFU, GNAQ / Fold change vs veh, GNAQ / RFU, CDK5R1 / Fold change vs veh, CDK5R1 / RFU, ZRANB3 / Fold change vs veh, ZRANB3 / RFU, CUL4A / Fold change vs veh, CUL4A / RFU, CCNY / Fold change vs veh, CCNY / RFU, UFL1 / Fold change vs veh, UFL1 / RFU, COG3 / Fold change vs veh, COG3 / RFU, DIAPH2 / Fold change vs veh, DIAPH2 / RFU, SKA2 / Fold change vs veh, SKA2 / RFU, AFF3 / Fold change vs veh, AFF3 / RFU, LMF1 / Fold change vs veh, LMF1 / RFU, IPO11 / Fold change vs veh, IPO11 / RFU, DFFB / Fold change vs veh, DFFB / RFU, FOXP1 / Fold change vs veh, FOXP1 / RFU, CARD8 / Fold change vs veh, CARD8 / RFU, STRN3 / Fold change vs veh, STRN3 / RFU, ADK / Fold change vs veh, ADK / RFU, RASSF2 / Fold change vs veh, RASSF2 / RFU, WIPF1 / Fold change vs veh, WIPF1 / RFU, LARP1B / Fold change vs veh, LARP1B / RFU, RASA1 / Fold change vs veh, RASA1 / RFU, RB1 / Fold change vs veh, RB1 / RFU, PPFIA1 / Fold change vs veh, PPFIA1 / RFU, MAT2A / Fold change vs veh, MAT2A / RFU, CCT5 / Fold change vs veh, CCT5 / RFU, WDR92 / Fold change vs veh, WDR92 / RFU, CUX1 / Fold change vs veh, CUX1 / RFU, TTC7A / Fold change vs veh, TTC7A / RFU, TMEM135 / Fold change vs veh, TMEM135 / RFU, DEPTOR / Fold change vs veh, DEPTOR / RFU, CPM / Fold change vs veh, CPM / RFU, DNAJB6 / Fold change vs veh, DNAJB6 / RFU, CACNA2D3 / Fold change vs veh, CACNA2D3 / RFU, DTX4 / Fold change vs veh, DTX4 / RFU, TFCP2 / Fold change vs veh, TFCP2 / RFU, GMCL1 /// GMCL1P1 / Fold change vs veh, GMCL1 /// GMCL1P1 / RFU, AEBP2 / Fold change vs veh, AEBP2 / RFU, SNHG1 /// SNORD22 /// SNORD25 /// SNORD26 /// SNORD27 /// SNORD28 /// SNORD29 /// SNORD31 / Fold change vs veh, SNHG1 /// SNORD22 /// SNORD25 /// SNORD26 /// SNORD27 /// SNORD28 /// SNORD29 /// SNORD31 / Fold change (Aza/veh), C12orf56 (ProbeSet 11735607_a_at) / Fold change (ACY-1035/veh), C12orf56 (ProbeSet 11735607_a_at) / Fold change (Aza/veh), FGFR1OP (ProbeSet 11751329_s_at) / Fold change (ACY-1035/veh), FGFR1OP (ProbeSet 11751329_s_at) / Fold change (Aza/veh), VPS36 (ProbeSet 11739960_a_at) / Fold change (ACY-1035/veh), VPS36 (ProbeSet 11739960_a_at) / RFU SYPL1 (11715823_x_at) / Fold change /veh SYPL1 (11715823_x_at) / RFU IGFBP7 (11715501_s_at) / Fold change /veh IGFBP7 (11715501_s_at) / RFU REEP3 (11722064_at) / Fold change /veh REEP3 (11722064_at) / RFU IGLL1 (11728026_x_at) / Fold change /veh IGLL1 (11728026_x_at): dose or concentration left out as unconfirmed
Settings: MV-4-11 cells, 48 hours

Question: For `Nc1ncn([C@@H]2O[C@H](CO)[C@@H](O)[C@H]2O)c(=O)n1` [azacitidine], which “Fold change /veh KRTAP10-2 (11738614_at)” value is on record?
Answer: 0.93
